The results in this text go back to US4529602A, “Method for treatment or prophylaxis of gastro-intestinal disease” (priority 1981, dated 1985).

Where a name gives a salt, the structure may show the parent alone.

The subject of assay [1] is pepsin secretion. As to the kind of experiment: Preventive effect on pepsin secretion in pylorus-ligated rats. The format is in vivo, Male SD-strain rats. As to conditions: 100 mg/kg oral, 5 h after administration. How it is done: (§1) Preventive effect on acid and pepsin secretions
(§2) Male SD-strain rats (6 to 7 weeks old) were starved for 48 hours, and then the pylori were ligated. Immediately after ligation, a solution or suspension of a test compound in distilled water was administered orally into the stomachs in an amount of 0.2 ml per 100 g of body weight (Dose: 100 mg/kg). Five hours after said administration of the test compound, the rats were sacrificed and the stomachs were removed. The gastric contents were centrifuged at 2,500 rpm for 10 minutes and the gastric juice was collected as the supernatant. The concentration of pepsin in the gastric juice was determined by Anson's method (c.f., J. Gen. Physiol., 22, pp. 77-89 (1938)) using hemoglobin as the substrate, and the preventive effect of the test compound on the pepsin secretion was estimated in terms of "decrease in pepsin concentration" according to the following formula: [formula]

Assay [2] relates to aspirin-induced ulcers. As to the kind of experiment: Effect on aspirin-induced ulcers. The format is in vivo, Male Donryu-strain rats. The settings on record: aspirin 200 mg/kg. The protocol: Male Donryu-strain rats (8 to 9 weeks old) were starved overnight, and a solution or suspension of a test compound in distilled water was administered orally into the stomachs in an amount of one ml per 100 g of body weight. Half an hour later, a suspension of aspirin in 0.25% CMC solution was administered orally to the rats in an amount of 0.5 ml per 100 g of body weight (Dose: 200 mg/kg). Four hours after the administration of aspirin, the rats were sacrificed and the stomachs were removed and inflated by injecting 10 ml of 1% formalin solution to fix the inner layers of the gastric walls. The stomach was then incised along the greater curvature and the lengths of the lesions were measured and summated to give ulcer index (in mm) for each animal. The preventive effect of the test compound on aspirin-induced ulcers were calculated by the following formula: [formula] (Results)

The test system of assay [3] is gastric acid secretion. The assay can be described thus: Preventive effect on gastric acid secretion in pylorus-ligated rats. The class given is in vivo, Male SD-strain rats. The settings on record: 100 mg/kg oral, 5 h after administration. How it is done:
as §1, §2
On the other hand, the concentration of free acid in the gastric juice was determined by titrating said gastric juice to pH 7.0 with 0.1N NaOH, and the preventive effect of the test compound on the gastric acid secretion was estimated in terms of "the decrease in acidity of gastric juice" according to the following formula: [formula] (Results)

On to “sulfodehydroabietic acid (aluminum monohydroxide) [Aluminum monohydroxide salt]”, for which the “Decrease (%) in pepsin concentration” value in assay [1] is on record as 91%.

Regarding `CC(C)c1cc2c(cc1S(=O)(=O)O)[C@@]1(C)CCC[C@@](C)(C(=O)O)[C@@H]1CC2` [L-S--Methylmethionine salt, sulfodehydroabietic acid S-methyl-L-methionine salt dihydrate], the “Preventive effect on aspirin-induced ulcers” value in assay [2] (p.o. 2 m mol./kg (1,086 mg/kg)) is on record as 85%. Further, the “Decrease (%) in pepsin concentration” value in assay [1] (dihydrate) is 84%.

With `CC(C)c1cc2c(cc1S(=O)(=O)O)[C@@]1(C)CCC[C@@](C)(C(=O)O)[C@@H]1CC2` [Tetramethylenediamine salt, sulfodehydroabietic acid tetramethylenediamine salt hemihydrate], the “Decrease (%) in acidity of gastric juice” value in assay [3] (hemihydrate) is reported as 36%. In addition, the “Decrease (%) in pepsin concentration” value in assay [1] (hemihydrate) came to 84%.

As to `CC(C)c1cc2c(cc1S(=O)(=O)O)[C@@]1(C)CCC[C@@](C)(C(=O)O)[C@@H]1CC2` [Hexamethylenediamine salt, sulfodehydroabietic acid hexamethylenediamine salt hemihydrate], the “Decrease (%) in acidity of gastric juice” value in assay [3] (hemihydrate) was determined as 32%. In addition, in assay [1] (hemihydrate), the “Decrease (%) in pepsin concentration” value was 94%.

As to `CC(C)c1cc2c(cc1S(=O)(=O)O)[C@@]1(C)CCC[C@@](C)(C(=O)O)[C@@H]1CC2` [2 (2-Dimethylaminoethyl)amine salt, sulfodehydroabietic acid di(2-dimethylaminoethylamine)salt monohydrate], in assay [3] (monohydrate), the “Decrease (%) in acidity of gastric juice” value came out at 31%. Besides, the “Decrease (%) in pepsin concentration” value in assay [1] (monohydrate) was 92%.

On to `CC(C)c1cc2c(cc1S(=O)(=O)O)[C@@]1(C)CCC[C@@](C)(C(=O)O)[C@@H]1CC2` [Ethylenediamine salt, sulfodehydroabietic acid ethylenediamine salt hemihydrate], for which the “Decrease (%) in pepsin concentration” value in assay [1] (hemihydrate) was found to be 94%.

Take `CC(C)c1cc2c(cc1S(=O)(=O)O)[C@@]1(C)CCC[C@@](C)(C(=O)O)[C@@H]1CC2` [L-Lysine salt, sulfodehydroabietic acid L-lysine salt monohydrate]: in assay [1] (monohydrate), the “Decrease (%) in pepsin concentration” value was determined as 94%.

Take `CC(C)c1cc2c(cc1S(=O)(=O)O)[C@@]1(C)CCC[C@@](C)(C(=O)O)[C@@H]1CC2` [L-Asparagine salt, sulfodehydroabietic acid L-asparagine salt monohydrate]: the “Decrease (%) in acidity of gastric juice” value in assay [3] (monohydrate) is given as 38%. Besides, the “Decrease (%) in pepsin concentration” value in assay [1] (monohydrate) is recorded as 90%.

With `CC(C)c1cc2c(cc1S(=O)(=O)O)[C@@]1(C)CCC[C@@](C)(C(=O)O)[C@@H]1CC2` [L-Glutamine salt, sulfodehydroabietic acid L-glutamine salt hemihydrate], the “Decrease (%) in acidity of gastric juice” value in assay [3] (hemihydrate) is on record as 39%. Further, the “Decrease (%) in pepsin concentration” value in assay [1] (hemihydrate) is given as 90%.

As for “sulfodehydroabietic acid di(aluminum dihydroxide)salt dihydrate [2 Aluminum dihydroxide salt]”, in assay [1], the “Decrease (%) in pepsin concentration” value is reported as 69%.

As to `CC(C)c1cc2c(cc1S(=O)(=O)O)[C@@]1(C)CCC[C@@](C)(C(=O)O)[C@@H]1CC2` [Carnosine salt, sulfodehydroabietic acic carnosine salt monohydrate], in assay [2] (p.o. 2 m mol./kg (1,248 mg/kg)), the “Preventive effect on aspirin-induced ulcers” value was determined as 33%. Moreover, the “Decrease (%) in pepsin concentration” value in assay [1] (monohydrate) is recorded as 72%.

For the compound `CC(C)c1cc2c(cc1S(=O)(=O)O)[C@@]1(C)CCC[C@@](C)(C(=O)O)[C@@H]1CC2` [2 Cyclohexylamine salt, sulfodehydroabietic acid di(cyclohexylamine)salt], the “Decrease (%) in pepsin concentration” value in assay [1] is reported as 71%.

On to `CC(C)c1cc2c(cc1S(=O)(=O)O)[C@@]1(C)CCC[C@@](C)(C(=O)O)[C@@H]1CC2` [L-Arginine salt, sulfodehydroabietic acid L-arginine salt hemihydrate], for which the “Decrease (%) in pepsin concentration” value in assay [1] (hemihydrate) turned out to be 77%.

For `CC(C)c1cc2c(cc1S(=O)(=O)O)[C@@]1(C)CCC[C@@](C)(C(=O)O)[C@@H]1CC2` [2 (2-Methoxyethyl)amine salt, sulfodehydroabietic acid di(2-methoxyethylamine)salt], in assay [1], the “Decrease (%) in pepsin concentration” value amounted to 98%.

`CC(C)c1cc2c(cc1S(=O)(=O)O)[C@@]1(C)CCC[C@@](C)(C(=O)O)[C@@H]1CC2` [2 Isopropylamine salt, sulfodehydroabietic acid di(isopropylamine)salt]: the “Decrease (%) in acidity of gastric juice” value in assay [3] turned out to be 40%. Further, the “Decrease (%) in pepsin concentration” value in assay [1] was 95%.

For `CC(C)c1cc2c(cc1S(=O)(=O)O)[C@@]1(C)CCC[C@@](C)(C(=O)O)[C@@H]1CC2` [2 Morpholine salt, sulfodehydroabietic acid dimorpholine salt hemihydrate], the “Decrease (%) in pepsin concentration” value in assay [1] (hemihydrate) stood at 92%.

In the case of `CC(C)c1cc2c(cc1S(=O)(=O)O)[C@@]1(C)CCC[C@@](C)(C(=O)O)[C@@H]1CC2` [2/3 Aluminum salt, sulfodehydroabietic acid 2/3 aluminum ssalt 7/3 hydrate], the “Decrease (%) in pepsin concentration” value in assay [1] (hydrate) is recorded as 95%.
